Like-named read-outs stand apart in the source and are kept apart here.
Molecular target: T1, Human M4 mAChR (Homo sapiens, UniProt P08173)
T1 construct: host or cells: HEK293 (Sor-L9 HEK293 human/M4/GloSensor Cell Clone Number 40)
T1 sequence (P08173 1-479): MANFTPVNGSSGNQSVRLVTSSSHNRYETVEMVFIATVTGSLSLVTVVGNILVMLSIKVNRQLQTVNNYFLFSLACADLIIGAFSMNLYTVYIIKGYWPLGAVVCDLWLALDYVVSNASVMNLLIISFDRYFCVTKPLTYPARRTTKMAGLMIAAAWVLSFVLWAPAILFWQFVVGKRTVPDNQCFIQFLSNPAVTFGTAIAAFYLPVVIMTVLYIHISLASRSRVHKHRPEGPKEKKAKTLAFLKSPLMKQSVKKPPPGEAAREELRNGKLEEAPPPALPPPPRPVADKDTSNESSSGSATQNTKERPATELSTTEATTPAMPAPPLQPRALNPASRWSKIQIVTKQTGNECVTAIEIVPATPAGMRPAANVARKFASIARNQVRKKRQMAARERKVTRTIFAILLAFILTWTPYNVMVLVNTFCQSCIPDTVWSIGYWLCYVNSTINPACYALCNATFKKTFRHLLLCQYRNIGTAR
Assay: Muscarinic hM4 Agonist GloSensor cAMP Assay
Assay type: cell-based
Description: Muscarinic hM4 Agonist GloSensor cAMP Assay Methods
Compounds were prepared in advance of the assay. Test compounds were solubilized in 100% dimethyl sulfoxide (DMSO, Sigma D8418) to a concentration of 30 mM. A 10-point intermediate dilution series using half log dilutions was created in 100% DMSO with a top concentration of 4 mM. The serially diluted compounds were spotted as 200 nL/well in a 384-well plate (Matrix Catalog Number 4325). The final compound concentration range in the assay was […] to 0.3 nM with a final DMSO concentration of 0.25%.
Human M4 mAChR expressing stable cell lines were generated using a parental HEK cell expressing the GloSensor construct (Promega Sor-L9 HEK293 human/M4/GloSensor Cell Clone Number 40). The cells were grown in 90% Dulbecco's Modified Eagle Medium (DMEM, Gibco 11960), 10% fetal bovine serum (FBS, Hyclone CH.30160-03), 1% Penicillin/Streptomycin (Gibco 15070-063), 500 µg/mL Geneticin (Gibco 10131-027), 200 µg/mL Hygromycin B (Invitrogen 10687-010) and 1% Glutamax (Thermo Fisher 35050061).
One day prior to assay, the cells were lifted using dissociation buffer (Gibco 13151-014) and spun in a centrifuge at 250 times gravity for 5 minutes at room temperature. Supernatant was removed and the cell pellet was resuspended in growth media to a concentration of […]. Cells were then added to white poly-d-lysine coated plates (Becton Dickinson 356661) as 40 μL per well (25,000 cells) and incubated overnight (20-24 hours) in a 37° C. humidified incubator with 5% carbon dioxide (C02).
The following day, culture media was removed from the cell plates and replaced with […] equilibration medium containing 88% CO2-independent medium (Invitrogen 18045088), 10% FBS and 2% GloSensor cAMP reagent (Promega E1291) that had been warmed to 37° C. Plates were then covered and incubated for 2 hours at room temperature while protected from light.
To the previously prepared serially diluted compound plates, 200 nL of 4 mM ACh (Sigma A2661, 10 μM final) or 200 nL of 100% DMSO (0.25% final) was added to the positive and negative control wells, respectively. Compound plates were then diluted by adding 16 μL of C02-independent media containing 10% FBS and an EC80 concentration of isoproterenol (Sigma 16504). Prior to compound testing, concentration response curves were run for isoproterenol to determine the EC80 concentration. At the end of the 2 hour equilibration, 10 µL was transferred from the compound plates to the cell plates. The cell plates were incubated an additional 7 minutes at room temperature and then read using a Multi-label EnVision plate reader (Perkin Elmer) for luminescence.
The raw data, expressed as relative light units, was analyzed using Activity Base (IDBS). The percent effect at each compound concentration was calculated based on and relative to the amount of cAMP produced by the positive and negative control wells contained on each assay plate. The positive control wells contained an EC100 concentration of ACh and the negative control wells contained only DMSO. The concentration and % effect values were fit using a four-parameter logistic dose response equation, and the concentration required for 50% effect (EC50) was determined as well as the maximum asymptote of the concentration response curve to define the efficacy.

[1] = Emax: maximum asymptote of concentration response curve, relative to ACh positive control (EC100) and DMSO, geometric mean, read-out: % maximum effect
[2] = HEK293 human/M4/GloSensor cells, EC80 isoproterenol, geometric mean, number of determinations in parentheses, read-out: EC50
[3] = enantiomers reported in footnotes to Table 1, number of determinations in parentheses, read-out: M4 EC50
[4] = enantiomers reported in footnotes to Table 1, number of determinations in parentheses, read-out: M4 Emax

Emax [1]	EC50 [2]	EC50 [3]	Emax [4]	SMILES
75.3%	9.9 nM			CCOC(=O)N1CC2(CCC(N3CCN(c4cccnc4OC(F)(F)F)CC3)C2)C1 (single isomer, unassigned) [Example 20, ethyl 6-{4-[2-(trifluoromethoxy)pyridin-3-yl]piperazin-1-yl}-2-azaspiro[3.4]octane-2-carboxylate]
98.7%	2.23 nM			CCOC(=O)N1CC2(CC[C@@H](N3CCN(c4ncccc4-c4cnccn4)CC3)C2)C1 [Example 8, ethyl (6R)-6-{4-[3-(pyrazin-2-yl)pyridin-2-yl]piperazin-1-yl}-2-azaspiro[3.4]octane-2-carboxylate]
80.6%	7.72 nM			CCOC(=O)N1CC2(CCC(N3CCN(c4ncccc4-c4sc(C)nc4C)CC3)C2)C1 (centres unmarked) [Example 36, ethyl 6-{4-[3-(2,4-dimethyl-1,3-thiazol-5-yl)pyridin-2-yl]piperazin-1-yl}-2-azaspiro[3.4]octane-2-carboxylate]
		347 nM	72.3%	CCOC(=O)N1CC2(CCC(N3CCN(c4ncccc4-c4cnsn4)CC3)C2)C1 (single isomer, unassigned) [enantiomer of Example 34, ethyl 6-{4-[3-(1,2,5-thiadiazol-3-yl)pyridin-2-yl]piperazin-1-yl}-2-azaspiro[3.4]octane-2-carboxylate]
		> 10000 nM		CCOC(=O)N1CC2(CCC(N3CCN(c4nccnc4OC)CC3)C2)C1 (single isomer, unassigned) [enantiomer of Example 27, ethyl 6-[4-(3-methoxypyrazin-2-yl)piperazin-1-yl]-2-azaspiro[3.4]octane-2-carboxylate]
54.9%	5.11 nM			CCOC(=O)N1CC2(CCC(N3CCN(c4ncccc4-c4ncco4)CC3)C2)C1 (centres unmarked) [Example 18, ethyl 6-{4-[3-(1,3-oxazol-2-yl)pyridin-2-yl]piperazin-1-yl}-2-azaspiro[3.4]octane-2-carboxylate]
89.4%	< 0.389 nM			CCOCCn1cc(-c2cccnc2N2CCN([C@@H]3CCC4(C3)CN(C(=O)OCC)C4)CC2)cn1 [Example 50, ethyl (6R)-6-(4-{3-[1-(2-ethoxyethyl)-1H-pyrazol-4-yl]pyridin-2-yl}piperazin-1-yl)-2-azaspiro[3.4]octane-2-carboxylate]
107%	< 0.074 nM			CCOC(=O)N1CC2(CCC(N3CCN(c4ncccc4C4CC4)CC3)C2)C1 (single isomer, unassigned) [Example 22, ethyl 6-[4-[3-cyclopropylpyridin-2-yl)piperazin-1-yl]-2-azaspiro[3.4]octane-2-carboxylate]
63.5%	2.78 nM			CCOC(=O)N1CC2(CC[C@@H](N3CCN(c4ncccc4-c4cnc(C)nc4)CC3)C2)C1 [Example 47, ethyl (6R)-6-{4-[3-(2-methylpyrimidin-5-yl)pyridin-2-yl]piperazin-1-yl}-2-azaspiro[3.4]octane-2-carboxylate]
92%	0.568 nM			CCOC(=O)N1CC2(CCC(N3CCN(c4ncccc4-c4ccc(NC(C)=O)cc4)CC3)C2)C1 (centres unmarked) [Example 52, ethyl 6-(4-(3-(4-acetamidophenyl)pyridin-2-yl)piperazin-1-yl)-2-azaspiro[3.4]octane-2-carboxylate]
		3600 nM	95.3%	CCOC(=O)N1CC2(CCC(N3CCN(c4cccnc4OC(F)(F)F)CC3)C2)C1 (single isomer, unassigned) [enantiomer of Example 20, ethyl 6-{4-[2-(trifluoromethoxy)pyridin-3-yl]piperazin-1-yl}-2-azaspiro[3.4]octane-2-carboxylate]
68.2%	14.8 nM			CCOC(=O)N1CC2(CC[C@@H](N3CCN(c4ncccc4-n4cc(C)cn4)CC3)C2)C1 [Example 9, ethyl (6R)-6-{4-[3-(4-methyl-1H-pyrazol-1-yl)pyridin-2-yl]piperazin-1-yl}-2-azaspiro[3.4]octane-2-carboxylate]
60.9%	0.596 nM			CCOC(=O)N1CC2(CC[C@@H](N3CCN(c4ncccc4-c4cnn(CCCCC#N)c4)CC3)C2)C1 [Example 49, ethyl (6R)-6-(4-{3-[1-(4-cyanobutyl)-1H-pyrazol-4-yl]pyridin-2-yl}piperazin-1-yl)-2-azaspiro[3.4]octane-2-carboxylate]
68.6%	1.99 nM			CCOC(=O)N1CC2(CC[C@@H](N3CCN(c4ncccc4-c4nnc(C)o4)CC3)C2)C1 [Example 51, ethyl (6R)-6-{4-[3-(5-methyl-1,3,4-oxadiazol-2-yl)pyridin-2-yl]piperazin-1-yl}-2-azaspiro[3.4]octane-2-carboxylate]
		201 nM	74%	CCOC(=O)N1CC2(CCC(N3CCN(c4cccnc4OC(F)F)CC3)C2)C1 (single isomer, unassigned) [enantiomer of Example 19, ethyl 6-{4-[2-(difluoromethoxy)pyridin-3-yl]piperazin-1-yl}-2-azaspiro[3.4]octane-2-carboxylate]
35.2%	8.2 nM			CCOC(=O)N1CC2(CCC(N3CCN(c4ncccc4-c4cccnn4)CC3)C2)C1 (centres unmarked) [Example 45, ethyl 6-{4-[3-(pyridazin-3-yl)pyridin-2-yl]piperazin-1-yl}-2-azaspiro[3.4]octane-2-carboxylate]
78.4%	1.45 nM			CCOC(=O)N1CC2(CCC(N3CCN(c4cccnc4OC(F)F)CC3)C2)C1 (single isomer, unassigned) [Example 19, ethyl 6-{4-[2-(difluoromethoxy)pyridin-3-yl]piperazin-1-yl}-2-azaspiro[3.4]octane-2-carboxylate]
96.6%	< 1.75 nM			CCOC(=O)N1CC2(CC[C@@H](N3CCN(c4ncccc4-c4ccncn4)CC3)C2)C1 [Example 46, ethyl (6R)-6-{4-[3-(pyrimidin-4-yl)pyridin-2-yl]piperazin-1-yl}-2-azaspiro[3.4]octane-2-carboxylate]
